Reference: article PMC12169489, “Allosteric Covalent Inhibitors of the STAT3 Transcription Factor from Virtual Screening” (ACS Medicinal Chemistry Letters, 2025)
Values joined by “and” are separate entries in the source; they are usually repeats but may differ in a detail not shown here. Identical values can stand only once.

Assays:
[1] = target: T1, STAT3 protein (residues 127–688) (Homo sapiens, UniProt P40763); experiment: Fluorescence polarization (FP) assay, 5-FAM-G(pTyr)LPQTV-NH2 peptide; type: binding; conditions: 200 nM STAT3, 5 nM fluorescent peptide, 1 h at 37 °C preincubation, mean ± 95% confidence interval, 3 replicas
T1 construct: The STAT3 protein (residues 127–688) was expressed and purified; made in house
T1 sequence (P40763 127-688): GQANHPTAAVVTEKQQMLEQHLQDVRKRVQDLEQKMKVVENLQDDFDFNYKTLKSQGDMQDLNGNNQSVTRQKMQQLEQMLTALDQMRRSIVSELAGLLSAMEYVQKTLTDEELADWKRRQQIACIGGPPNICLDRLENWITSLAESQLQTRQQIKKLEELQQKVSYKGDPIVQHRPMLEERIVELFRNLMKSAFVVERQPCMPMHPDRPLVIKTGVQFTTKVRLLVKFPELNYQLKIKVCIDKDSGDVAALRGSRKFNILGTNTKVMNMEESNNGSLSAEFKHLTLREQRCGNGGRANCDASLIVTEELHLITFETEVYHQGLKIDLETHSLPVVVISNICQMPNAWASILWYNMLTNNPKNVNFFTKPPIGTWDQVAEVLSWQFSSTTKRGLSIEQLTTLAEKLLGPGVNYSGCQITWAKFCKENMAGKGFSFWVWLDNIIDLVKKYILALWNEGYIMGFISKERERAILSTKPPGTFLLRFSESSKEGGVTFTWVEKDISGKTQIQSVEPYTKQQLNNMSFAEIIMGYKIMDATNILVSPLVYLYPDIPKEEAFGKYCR
Protocol: The STAT3 protein (residues 127–688) was expressed and purified as described in our recent work. Fluorescence polarization assays were performed on a Molecular Devices SpectraMax iD5Multimode Microplate Reader (San Jose, CA, USA) using Greiner black 384-well flat-bottom nonbinding microplates with 40 μL final well volumes. The fluorescent peptide (5-FAM-G(pTyr)-LPQTV-NH2, purchased from GenScript Biotech Ltd., Piscataway, NJ, USA), as well as the protein were diluted with a buffer containing 50 mM NaCl, 10 mM HEPES (4-(2-hydroxyethyl)-1-piperazineethanesulfonic acid), 1 mM EDTA (ethylenediaminetetraacetic acid), 2 mM DTT (dithiothreitol), and 0.1% Triton X-100, pH 7.5. The final concentration of the STAT3 protein was 200 nM, and the fluorescent peptide was added at a final concentration of 5 nM. The wells were treated with varying concentrations of inhibitor compounds, with a 5% final DMSO content. Protein and inhibitors were incubated at 37 °C for 1 h. Then the fluorescence peptide was added, and then the plate was incubated for another 20 min prior to the fluorescence readout (extinction wavelength: 475 nm, emission wavelength: 520 nm). The measurements were carried out using 3 parallel biological replicas. Fluorescence polarization was calculated from the perpendicular and parallel fluorescence intensities and then plotted against concentration. The IC50 values were determined after fitting […] dose–response curves on data points using GraphPad Prism 8.0.1. software.
Figure S6. Fluorescence polarization assay results. Nonlinear curve fitting was used ([Inhibitor] vs. response - Variable slope (four parameters)) with least squares fitting. IC50s are presented with 95% confidence intervals, measurements were done in 3 parallel biological replicas.

STAT3 protein = STAT3 protein (Homo sapiens, UniProt P40763); experiment: Intact protein LC-MS labelling; type: binding
Chain of STAT3 protein (P40763 127-688 limits assumed): as the sequence (P40763 127-688) above
From the text: 1 Overview of the virtual screening workflow and hit follow-up. (a) Overview of the covalent docking virtual screening workflow, including representation of the key residues inside the binding site and highlighting the C259 residue. Remaining molecules after each step are included in parentheses. (b) Schematic representation of the expected mass peaks and shifts from the MS results for single and multiple labeling. The values assigned to the peaks for other than the peak corresponding to the unlabeled protein represents mass shift(s) resulting from successful labeling.
RPLC-MS analysis of the intact proteins were performed on a a Triple TOF 5600+ hybrid Quadrupole-TOF LC/MS/MS system (Sciex, MA, USA) equipped with a DuoSpray IonSource coupled with a Shimadzu Prominence LC20 UFLC (Shimadzu, Japan) system consisting of quaternary pump, an autosampler and a thermostatted column compartment. Chromatographic separation was achieved on the Discovery® BIO Wide Pore C-18-5 (250 mm × 2.1mm, 5 μm, 300 Å) HPLC column. Sample was eluted in gradient elution mode using solvent A (0.1% formic acid in water) and solvent B (0.1% formic acid in ACN). The initial condition was 5% B for 7 min, followed by a linear gradient to 90% B by […], from 55 to 63 min 90% B was retained; and from 63 to 65 min back to initial condition with 5 % eluent B and retained for 10 min. Flow rate was set to 0.2 ml/min. […]

| Structure (SMILES) | IC50 [1] | Covalent labelling of STAT3 (single vs multiple) (STAT3 protein) |
| --- | --- | --- |
| C=CC(=O)N1CCCC(C(=O)NCc2ccc3c(c2)OCO3)C1 (centres unmarked) [6a, 1-acryloyl-N-(benzo[d][1,3]dioxol-5-ylmethyl)piperidine-3-carboxamide] | 50.4 ± 39.4 µM | – |
| C=CC(=O)N1CCCC(O)(C(=O)NCc2ccc3c(c2)OCO3)C1 (centres unmarked) [6b, 1-acryloyl-N-(benzo[d][1,3]dioxol-5-ylmethyl)-3-hydroxypiperidine-3-carboxamide] | 2.91 ± 0.66 µM | single labeling |
| C=CS(=O)(=O)N1CCCC(C(=O)NCc2ccc3c(c2)OCO3)C1 (centres unmarked) [compound 8, N-(benzo[d][1,3]dioxol-5-ylmethyl)-1-(vinylsulfonyl)piperidine-3-carboxamide] | 33.4 ± 5 µM | labeled the protein at multiple residues |

Second part, the molecule after the results:

| IC50 [1] | Covalent labelling of STAT3 (single vs multiple) (STAT3 protein) | Structure (SMILES) |
| --- | --- | --- |
| 141 ± 53.4 µM | – | CCC(=O)N1CCCC(C(=O)NCc2ccc3c(c2)OCO3)C1 (centres unmarked) [10a, N-(benzo[d][1,3]dioxol-5-ylmethyl)-1-propionylpiperidine-3-carboxamide] |
| 86.7 ± 49.9 µM | – | CCC(=O)N1CCCC(O)(C(=O)NCc2ccc3c(c2)OCO3)C1 (centres unmarked) [10b, N-(benzo[d][1,3]dioxol-5-ylmethyl)-3-hydroxy-1-propionylpiperidine-3-carboxamide] |
| 40.7 ± 16.7 µM | – | C=CC(=O)N1CCCC(C(=O)NCc2cc(Br)c3c(c2)OCO3)C1 (centres unmarked) [K2] |
| 255 ± 124 µM | – | C=CC(=O)N1CC(C(=O)NCCN2CC3CCCCN3C2=O)C1 (centres unmarked) [K3] |
| 44.9 ± 22.7 µM | – | C=CC(=O)N1CCC(C(=O)NCC(O)c2c(F)cccc2F)CC1 (centres unmarked) [K6] |
| 94.6 µM and 94.5 µM | – | C=CC(=O)N1CCC(C(=O)N2CCN(C(=O)Cc3ccccc3C)CC2)CC1 [K10] |
